Data as given in the NIST ThermoML archive (doi:10.1021/je2007605).

Tests used:
[1] = for Normal melting temperature: DTA
[2] = Molar enthalpy of transition or fusion; settings: Crystal; DSC

COC(=O)c1ccc(C)cc1 [methyl 4-methylbenzoate]
[1], Closed cell (Static) method
Settings	vapor or sublimation pressure [kPa]
269.27 K, Crystal	0.0004
271.21 K, Crystal	0.00052
273.18 K, Crystal	0.00067
275.19 K, Crystal	0.00087
277.14 K, Crystal	0.00112
279.16 K, Crystal	0.00145
281.08 K, Crystal	0.00184
283.07 K, Crystal	0.00235
285.08 K, Crystal	0.003
287.05 K, Crystal	0.00377
289.04 K, Crystal	0.00475
291.04 K, Crystal	0.00599
293.03 K, Liquid	0.01066
293.04 K, Crystal	0.00745
295.02 K, Crystal	0.00939
295.08 K, Liquid	0.0127
297.03 K, Crystal	0.01167
297.05 K, Liquid	0.01498
299.02 K, Crystal	0.01451
299.04 K, Liquid	0.01755
300.98 K, Crystal	0.01795
301.03 K, Liquid	0.02057
303 K, Liquid	0.02404
305.03 K, Liquid	0.02784
306.98 K, Liquid	0.03242
308.97 K, Liquid	0.03825
310.97 K, Liquid	0.0434
312.95 K, Liquid	0.05065
314.97 K, Liquid	0.05815
316.99 K, Liquid	0.06735
318.9 K, Liquid	0.07685
320.95 K, Liquid	0.08945
322.94 K, Liquid	0.1009
324.92 K, Liquid	0.1171
326.96 K, Liquid	0.132
328.85 K, Liquid	0.151
330.92 K, Liquid	0.1689
332.84 K, Liquid	0.1934
334.91 K, Liquid	0.2162
336.82 K, Liquid	0.2454
338.88 K, Liquid	0.2748
340.75 K, Liquid	0.31
342.8 K, Liquid	0.3469
344.71 K, Liquid	0.3884
346.77 K, Liquid	0.4353
348.75 K, Liquid	0.484

Settings	Normal melting temperature [°C]
[1], Crystal	31.94

Settings	Molar enthalpy of transition or fusion [kcal/mol]
[2]	4.83

COC(=O)c1ccc(N(C)C)cc1 [methyl 4-(dimethylamino)benzoate]
vapor or sublimation pressure [kPa], [1]
Settings	Crystal	Liquid
311.12 K, Calculated from knudsen effusion weight loss	8.2e-05	–
313.19 K, Calculated from knudsen effusion weight loss	0.000104	–
315.17 K, Calculated from knudsen effusion weight loss	0.000131	–
317.11 K, Calculated from knudsen effusion weight loss	0.000166	–
319.18 K, Calculated from knudsen effusion weight loss	0.000211	–
323.12 K, Calculated from knudsen effusion weight loss	0.000332	–
324.96 K, Closed cell (Static) method	0.00043	–
325.18 K, Calculated from knudsen effusion weight loss	0.000421	–
326.93 K, Closed cell (Static) method	0.00053	–
327.16 K, Calculated from knudsen effusion weight loss	0.000525	–
328.93 K, Closed cell (Static) method	0.00068	–
329.11 K, Calculated from knudsen effusion weight loss	0.000662	–
330.9 K, Closed cell (Static) method	0.00084	–
331.17 K, Calculated from knudsen effusion weight loss	0.000829	–
332.91 K, Closed cell (Static) method	0.00105	–
333.16 K, Calculated from knudsen effusion weight loss	0.001019	–
334.88 K, Closed cell (Static) method	0.0013	–
336.89 K, Closed cell (Static) method	0.00161	–
338.85 K, Closed cell (Static) method	0.00199	–
340.86 K, Closed cell (Static) method	0.00246	–
342.81 K, Closed cell (Static) method	0.00298	–
344.83 K, Closed cell (Static) method	0.00365	–
346.78 K, Closed cell (Static) method	0.00447	–
348.79 K, Closed cell (Static) method	0.00542	–
350.75 K, Closed cell (Static) method	0.00655	–
352.74 K, Closed cell (Static) method	0.00799	–
352.78 K, Closed cell (Static) method	–	0.01105
354.73 K, Closed cell (Static) method	0.0096	–
354.77 K, Closed cell (Static) method	–	0.01276
356.72 K, Closed cell (Static) method	0.01168	–
356.75 K, Closed cell (Static) method	–	0.01475
358.69 K, Closed cell (Static) method	0.01403	–
358.73 K, Closed cell (Static) method	–	0.01697
360.68 K, Closed cell (Static) method	0.01658	–
360.72 K, Closed cell (Static) method	–	0.01953
362.67 K, Closed cell (Static) method	0.01987	–
362.7 K, Closed cell (Static) method	–	0.02236
364.65 K, Closed cell (Static) method	0.02318	–
364.68 K, Closed cell (Static) method	–	0.02563
366.61 K, Closed cell (Static) method	0.02725	–
366.67 K, Closed cell (Static) method	–	0.02928
368.66 K, Closed cell (Static) method	0.03255	0.03341
370.64 K, Closed cell (Static) method	–	0.03797
372.62 K, Closed cell (Static) method	–	0.04321
374.62 K, Closed cell (Static) method	–	0.04885
376.56 K, Closed cell (Static) method	–	0.05553
378.53 K, Closed cell (Static) method	–	0.0627
380.52 K, Closed cell (Static) method	–	0.07058
382.5 K, Closed cell (Static) method	–	0.07972
384.49 K, Closed cell (Static) method	–	0.08949
386.42 K, Closed cell (Static) method	–	0.1006
388.46 K, Closed cell (Static) method	–	0.1126
390.44 K, Closed cell (Static) method	–	0.1259

Settings	Normal melting temperature [°C]
[1], Crystal	98.14

Settings	Molar enthalpy of transition or fusion [kcal/mol]
[2]	5.59
